Consider six compounds from patent US4758565A, “Substituted pyrimidoquinoxalines useful as anti-anaerobic agents” (G. D. Searle & Co., priority 1986, dated 1988).

One assay relates to B. fragilis WS-1. The experiment in a line: Screening panel of Bacteroides fragilis, MIC and MBC, strain E. To be noted: WS1, 48 h; for MIC: 48 hours at 37° C., anaerobic, read-out: Minimum Inhibitory Concentration (MIC); for MBC: less than 5 colonies (99.9% reduction) after 48 hours, read-out: Minimum Bactericidal Concentration (MBC). The assay is classed as cell-based. How it is done: (§1) The screening panel utilized in this example consisted of 5 strains of Bacteroides fragilis. All assays were carried out in 96-well microtitre plates. If an isolate was obtained from either a culture collection or clinical source, the isolate was immediately inoculated into Wilkins-Chalgren broth (Oxoid) and incubated at 37° C. in an anaerobic chamber in an atmosphere of 85% nitrogen, 10% carbon dioxide, and 5% hydrogen for 48 hours. At the end of this time, the viable count was about […] broth. A 1 ml aliquot of each culture was placed in an ampoule and quick frozen in acetone-dry ice mixture and stored in liquid nitrogen. […] A 2 mg sample of the test compound was dissolved in 0.2 ml of a suitable solvent such as dimethylsulfoxide, polyethylene glycol 200 or methanol. […] After addition of the test solution the final inoculum level was 10^5 cells/ml. The plates were incubated for 48 hours at 37° C. in the anaerobic chamber. The Minimum Inhibitory Concentration (MIC) was read visually. The MIC is defined as the lowest concentration at which there is no detectable growth. The Minimum Bactericidal Concentration (MBC) was determined by taking 50 μ l aliquot from each well and placing it in fresh medium. […] The strains of Bacteroides fragilis utilized in the above procedure are identified by letter in accordance with the following legend: |E B. fragilis WS-1* | *Obtained from St. Thomas's Hospital Medical School, London, United | Kingdom.

For assay [1], the system named is Bacteroides melanogenicus NCTC 9336. The experiment in a line: MIC vs panel of anaerobes. Type of assay: cell-based. To be noted: NCTC9336, procedures of Example 11 (mg/L).
Assay [2] deals with Campylobacter fetus ss. jejuni ATCC 29428. As to the kind of experiment: MIC vs panel of anaerobes. The assay is classed as cell-based. The note with it: ATCC29428, procedures of Example 11 (mg/L).
In a further assay the test system is B. fragilis NCTC 9353. As to the kind of experiment: Screening panel of Bacteroides fragilis, MIC and MBC, strain B. Type of assay: cell-based. To be noted: for MIC / MBC: Bacteroides fragilis, NCTC9353, 48 h; for MIC: read-out: Minimum Inhibitory Concentration (MIC); for MBC: read-out: Minimum Bactericidal Concentration (MBC). How it is done: as §1, with “|B” for “|E”, “NCTC 9353” for “WS-1* | *Obtained from St. Thomas's Hospital Medical School, London, United | Kingdom.”

In assay [3] the test system is Fusobacterium necrophorum ATCC 11295. The experiment in a line: MIC vs panel of anaerobes. To be noted: ATCC11295, procedures of Example 11 (mg/L). Type of assay: cell-based.
The test system of assay [4] is B. fragilis MZ-R ATCC 11295. The experiment in a line: Screening panel of Bacteroides fragilis, MIC and MBC, strain D. Type of assay: cell-based. The note with it: ATCC11295, 48 h; for MIC: 48 hours at 37° C., anaerobic, read-out: Minimum Inhibitory Concentration (MIC); for MBC: less than 5 colonies (99.9% reduction) after 48 hours, read-out: Minimum Bactericidal Concentration (MBC).

Assay [5] has as its system Propionebacterium acnes NCTC 7337. The experiment in a line: MIC vs panel of anaerobes. To be noted: procedures of Example 11 (mg/L). Type of assay: cell-based.
Assay [6] concerns Peptostreptococcus anaerobius. As to the kind of experiment: MIC vs panel of anaerobes. Type of assay: cell-based. To be noted: procedures of Example 11 (mg/L).
Assay [7] has as its system Clostridium difficile NCIB 10666. The experiment in a line: MIC vs panel of anaerobes. Type of assay: cell-based. To be noted: Clostridioides difficile, NCIB10666, procedures of Example 11 (mg/L).
For a further assay, the system named is B. fragilis NCTC 10581. As to the kind of experiment: Screening panel of Bacteroides fragilis, MIC and MBC, strain A. The note with it: for MIC: NCTC10581, 48 hours at 37° C., anaerobic, read-out: Minimum Inhibitory Concentration (MIC); for MBC: NCTC10581, less than 5 colonies (99.9% reduction) after 48 hours, read-out: Minimum Bactericidal Concentration (MBC). The assay is classed as cell-based. The protocol: as §1, with “|A” for “|E”, “NCTC 10581” for “WS-1* | *Obtained from St. Thomas's Hospital Medical School, London, United | Kingdom.”

For assay [8], the system named is Clostridium perfringens NCTC 523. As to the kind of experiment: microbe, parasite or virus in culture. Type of assay: cell-based. The note with it: NCTC523.
Assay [9] relates to Campylobacter fetus ss. jejuni NCTC 10842. The experiment in a line: MIC vs panel of anaerobes. The note with it: NCTC10842, procedures of Example 11 (mg/L). The assay is classed as cell-based.
Another assay deals with B. fragilis NCTC 9344. The experiment in a line: Screening panel of Bacteroides fragilis, MIC and MBC, strain C. The note with it: for MBC / MIC: Bacteroides fragilis; for MBC: NCTC9344, 48 h, read-out: Minimum Bactericidal Concentration (MBC); for MIC: NCTC9344, 48 hours at 37° C., anaerobic, read-out: Minimum Inhibitory Concentration (MIC). The assay is classed as cell-based. How it is done: as §1, with “|C” for “|E”, “NCTC 9344” for “WS-1* | *Obtained from St. Thomas's Hospital Medical School, London, United | Kingdom.”

For another assay, the system named is Peptococcus magnus. The experiment in a line: MIC vs panel of anaerobes. The assay is classed as cell-based. The note with it: Finegoldia magna, procedures of Example 11 (mg/L).
Assay [10] concerns Fusobacterium necrophorum ATCC 25286. As to the kind of experiment: MIC vs panel of anaerobes. Type of assay: cell-based. To be noted: ATCC25286, procedures of Example 11 (mg/L).
A further assay deals with B. fragilis 23745. The experiment in a line: In vivo anti-anaerobe activity, mouse hepatic necrosis. The note with it: 40 mg/kg (p.o).
Setting [11] is: less than 5 colonies (99.9% reduction) after 48 hours.

The structures appear in SMILES notation. In brackets after ≈: the same amount, converted by molar mass.

For the compound `CC1(C)CN=C2C(c3ccccc3)=[N+]([O-])c3cc(C(F)(F)F)ccc3N2C1` [Example 1, 2,3-Dihydro-2,2-dimethyl-5-phenyl-8-trifluoromethyl-1H-pyrimido[1,2-a]quinoxaline 6-oxide], the MIC in the assay on B. fragilis WS-1 is 1.5 µg/mL (≈ 4.02 µM); in [1], greater than 100 µg/mL; in [2] it was 100 µg/mL (≈ 268 µM); in the assay with B. fragilis NCTC 9353 (48 hours at 37° C., anaerobic), 1.5 µg/mL (≈ 4.02 µM); in [3], 1.5 µg/mL (≈ 4.02 µM); in assay [4] it was 0.8 µg/mL (≈ 2.14 µM). Further, the MIC in assay [5] is 100 µg/mL (≈ 268 µM); in [6] it was 100 µg/mL (≈ 268 µM); in [7], less than 0.8 µg/mL; with B. fragilis NCTC 10581, 3.1 µg/mL (≈ 8.3 µM); in [8], 1.5 µg/mL (≈ 4.02 µM); in [9], greater than 100 µg/mL. Also, in the assay on B. fragilis NCTC 9344, the MIC came out at 1.5 µg/mL (≈ 4.02 µM). The MBC is 1.5 µg/mL (≈ 4.02 µM) in the assay with B. fragilis WS-1; 1.5 µg/mL (≈ 4.02 µM) in the assay on B. fragilis NCTC 9353 (setting [11]); 0.8 µg/mL (≈ 2.14 µM) in [4]; 3.1 µg/mL (≈ 8.3 µM) with B. fragilis NCTC 10581; 3.1 µg/mL (≈ 8.3 µM) in the assay on B. fragilis NCTC 9344 (setting [11]).

For the compound `CC1(C)CN=C2C(c3ccccc3)=[N+]([O-])c3ccc(F)cc3N2C1` [Example 2, 2,3-Dihydro-2,2-dimethyl-9-fluoro-5-phenyl-1H-pyrimido [1,2-a]quinoxaline 6-oxide], the MIC was less than 0.8 µg/mL against Peptococcus magnus; less than 0.8 µg/mL in [10]; less than 0.8 µg/mL with B. fragilis WS-1; 50 µg/mL (≈ 155 µM) in assay [1]; 25 µg/mL (≈ 77.3 µM) in assay [2]; less than 0.8 µg/mL in the assay on B. fragilis NCTC 9353 (48 hours at 37° C., anaerobic). Besides, the MIC in [3] is 3.1 µg/mL (≈ 9.59 µM); in [4] it was less than 0.8 µg/mL; in [5] it was 50 µg/mL (≈ 155 µM); in [6], 1.5 µg/mL (≈ 4.64 µM); in [7], 3.1 µg/mL (≈ 9.59 µM); in assay [8] it was 3.1 µg/mL (≈ 9.59 µM). For the same compound, the MIC in assay [9] is 50 µg/mL (≈ 155 µM); in the assay on B. fragilis NCTC 9344, less than 0.8 µg/mL. Moreover, the MBC with B. fragilis WS-1 was less than 0.8 µg/mL; with B. fragilis NCTC 9353 (setting [11]) it was less than 0.8 µg/mL; in [4] it was less than 0.8 µg/mL; with B. fragilis NCTC 9344 (setting [11]), 1.5 µg/mL (≈ 4.64 µM).

As to `CCC1(C)CN=C2C(c3ccccc3)=[N+]([O-])c3cc(C(F)(F)F)ccc3N2C1` (stereo not shown) [Example 4, 2,3-Dihydro-2-ethyl-2-methyl-5-phenyl-8-trifluoromethyl-1H-pyrimido [1,2-a]quinoxaline 6-oxide], the MIC in the assay on B. fragilis WS-1 was less than 0.8 µg/mL; in the assay on B. fragilis NCTC 9353 (48 hours at 37° C., anaerobic) it was less than 0.8 µg/mL; in assay [4], less than 0.8 µg/mL; in the assay with B. fragilis NCTC 10581, less than 0.8 µg/mL; in the assay on B. fragilis NCTC 9344, less than 0.8 µg/mL. Further, the MBC in the assay on B. fragilis WS-1 is less than 0.8 µg/mL; in the assay on B. fragilis NCTC 9353 (setting [11]) it was less than 0.8 µg/mL; in [4] it was less than 0.8 µg/mL; in the assay on B. fragilis NCTC 10581, 1.5 µg/mL (≈ 3.87 µM); in the assay with B. fragilis NCTC 9344 (setting [11]) it was less than 0.8 µg/mL.

On to `CC1(C)CN=C2C(c3ccccc3)=[N+]([O-])c3cccc(F)c3N2C1` [Example 5, 2,3-Dihydro-2,2-dimethyl-10-fluoeo-5-phenyl-1H-pyrimido [1,2-a]quinoxaline 6-oxide], for which the MIC in the assay on B. fragilis WS-1 was less than 0.8 µg/mL; in the assay with B. fragilis NCTC 9353 (48 hours at 37° C., anaerobic), less than 0.8 µg/mL; in assay [4], less than 0.8 µg/mL; in the assay with B. fragilis NCTC 10581, less than 0.8 µg/mL; in the assay on B. fragilis NCTC 9344, less than 0.8 µg/mL. Further, the MBC with B. fragilis WS-1 was less than 0.8 µg/mL; in the assay on B. fragilis NCTC 9353 (setting [11]) it was less than 0.8 µg/mL; in [4], less than 0.8 µg/mL; with B. fragilis NCTC 10581, 1.5 µg/mL (≈ 4.64 µM); in the assay with B. fragilis NCTC 9344 (setting [11]) it was less than 0.8 µg/mL.

Consider `CCC1(C)CN=C2C(c3ccc(C)cc3)=[N+]([O-])c3cc(C(F)(F)F)ccc3N2C1` (stereo not shown) [Example 6, 2,3-Dihydro-2-ethyl-2-methyl-5-(4-methylphenyl)-8-trifluoromethyl-1H-pyrimdo [1,2-a]quinoxaline 6-oxide], for which the MIC in the assay with B. fragilis WS-1 was 3.1 µg/mL (≈ 7.72 µM); in the assay with B. fragilis NCTC 9353 (48 hours at 37° C., anaerobic), 6.2 µg/mL (≈ 15.4 µM); in assay [4], 1.5 µg/mL (≈ 3.74 µM); in the assay on B. fragilis NCTC 10581 it was 6.2 µg/mL (≈ 15.4 µM); in the assay with B. fragilis NCTC 9344, 3.1 µg/mL (≈ 7.72 µM). Besides, the MBC stood at 3.1 µg/mL (≈ 7.72 µM) in the assay on B. fragilis WS-1; 6.2 µg/mL (≈ 15.4 µM) in the assay on B. fragilis NCTC 9353 (setting [11]); 3.1 µg/mL (≈ 7.72 µM) in assay [4]; 6.2 µg/mL (≈ 15.4 µM) with B. fragilis NCTC 10581; 3.1 µg/mL (≈ 7.72 µM) in the assay with B. fragilis NCTC 9344 (setting [11]).

Consider `Cc1ncc([N+](=O)[O-])n1CCO` [Metronidazole, reference compound], for which the “reduction in B. fragilis” value with B. fragilis 23745 is 3-3.5 log10. Moreover, the “Minimum Inhibitory Concentration (MIC)” value in the assay with B. fragilis NCTC 9353 (48 hours at 37° C., anaerobic) turned out to be 1.5 µg/mL. Besides, the MIC in the assay on B. fragilis NCTC 9353 (48 hours at 37° C., anaerobic) is less than 0.8 µg/mL; in the assay with B. fragilis NCTC 10581, less than 0.8 µg/mL; in the assay with B. fragilis NCTC 9344, less than 0.8 µg/mL. The MBC is less than 0.8 µg/mL in the assay with B. fragilis NCTC 9353 (setting [11]), less than 0.8 µg/mL in the assay with B. fragilis NCTC 10581 and 1.5 µg/mL (≈ 8.76 µM) in the assay on B. fragilis NCTC 9344 (setting [11]). Also, the “Minimum Bactericidal Concentration (MBC)” value with B. fragilis NCTC 9353 (setting [11]) is 1.5 µg/mL; in the assay on B. fragilis NCTC 9344 (setting [11]), less than 0.8 µg/mL.
